PMC12770603 (Scientific Reports, 2025)

System: EstN3
Test: p-nitrophenol release at […] nm, Michaelis-Menten non-linear fit
Type: biochemical, uncultured bacterium
Settings: pH 7.0, 37 °C, 15 min

## CCCCC(=O)Oc1ccc([N+](=O)[O-])cc1 [pNP-valerate]
  Km: 1520 µM
